Test results: patent publication US9469650B2, “Melampomagnolide B derivatives” (BOARD OF TRUSTEES OF THE UNIVERSITY OF ARKANSAS, priority 2013, dated 2016)
Like-named read-outs stand apart in the source and are kept apart here.

Key:
ACHN = test: panel of 60 human tumor cell lines, growth inhibition (Renal Cancer)
IGROV1 = test: panel of 60 human tumor cell lines, growth inhibition (Ovarian Cancer); details: IGROVI
DU-145 = test: panel of 60 human tumor cell lines, growth inhibition (Prostate Cancer); details: DU-145
NCI-H522 = test: panel of 60 human tumor cell lines, growth inhibition (Non-Small Cell Lung Cancer); details: NCI-H522
SNB-19 = test: panel of 60 human tumor cell lines, growth inhibition (CNS Cancer); details: SNB-19
HCC-2998 = test: panel of 60 human tumor cell lines, growth inhibition (Colon Cancer); details: HCC-2998
TK-10 = test: panel of 60 human tumor cell lines, growth inhibition (Renal Cancer); details: TK-10
HOP-62 = test: panel of 60 human tumor cell lines, growth inhibition (Non-Small Cell Lung Cancer); details: HOP-62
BT-549 = test: panel of 60 human tumor cell lines, growth inhibition (Breast Cancer); details: BT-549

## C=C1C(=O)O[C@H]2[C@H]1CC/C(COC(=O)N1CCC(F)(F)CC1)=C\CC[C@@]1(C)O[C@@H]21 [JVM 2-66]
ACHN; Log10 Concentration −7.0
  Percent Growth: 93%
ACHN; Log10 Concentration −8.0
  Percent Growth: 103%
ACHN; read-out: LC50
  CC50: 27.4 µM
IGROV1
  GI50: 2.31 µM
  TGI: 7.26E−6
IGROV1; Log10 Concentration −4.0
  Percent Growth: −60%
IGROV1; Log10 Concentration −5.0
  Percent Growth: −14%
IGROV1; Log10 Concentration −6.0
  Percent Growth: 87%
IGROV1; Log10 Concentration −7.0
  Percent Growth: 106%
IGROV1; Log10 Concentration −8.0
  Percent Growth: 107%
DU-145
  GI50: 2.44 µM
  TGI: 8.35E−6
DU-145; Log10 Concentration −4.0
  Percent Growth: −100%
DU-145; Log10 Concentration −5.0
  Percent Growth: −7%
DU-145; Log10 Concentration −6.0
  Percent Growth: 86%
DU-145; Log10 Concentration −7.0
  Percent Growth: 100%
DU-145; Log10 Concentration −8.0
  Percent Growth: 102%
NCI-H522
  GI50: 1.25 µM
  TGI: 2.75E−6
NCI-H522; Log10 Concentration −4.0
  Percent Growth: −80%
NCI-H522; Log10 Concentration −5.0
  Percent Growth: −81%
NCI-H522; Log10 Concentration −6.0
  Percent Growth: 64%
NCI-H522; Log10 Concentration −7.0
  Percent Growth: 92%
NCI-H522; Log10 Concentration −8.0
  Percent Growth: 91%
SNB-19
  GI50: 12.8 µM
  TGI: 2.84E−5
SNB-19; Log10 Concentration −4.0
  Percent Growth: −79%
SNB-19; Log10 Concentration −5.0
  Percent Growth: 66%
SNB-19; Log10 Concentration −6.0
  Percent Growth: 89%
SNB-19; Log10 Concentration −7.0
  Percent Growth: 91%
SNB-19; Log10 Concentration −8.0
  Percent Growth: 93%
HL-60(TB)
  GI50: 2.04 µM
  TGI: 7.15E−6
HL-60(TB); Log10 Concentration −4.0
  Percent Growth: −49%
HL-60(TB); Log10 Concentration −5.0
  Percent Growth: −13%
HL-60(TB); Log10 Concentration −6.0
  Percent Growth: 79%
HL-60(TB); Log10 Concentration −7.0
  Percent Growth: 84%
HL-60(TB); Log10 Concentration −8.0
  Percent Growth: 97%
HL-60(TB); read-out: LC50
  CC50: > 100 µM
HCC-2998
  GI50: 6.24 µM
  TGI: 2.11E−5
HCC-2998; Log10 Concentration −4.0
  Percent Growth: −77%
HCC-2998; Log10 Concentration −5.0
  Percent Growth: 37%
HCC-2998; Log10 Concentration −6.0
  Percent Growth: 101%
HCC-2998; Log10 Concentration −7.0
  Percent Growth: 91%
HCC-2998; Log10 Concentration −8.0
  Percent Growth: 96%
TK-10
  GI50: 2.6 µM
  TGI: 6.55E−6
TK-10; Log10 Concentration −4.0
  Percent Growth: −96%
TK-10; Log10 Concentration −5.0
  Percent Growth: −23%
TK-10; Log10 Concentration −6.0
  Percent Growth: 102%
TK-10; Log10 Concentration −7.0
  Percent Growth: 95%
TK-10; Log10 Concentration −8.0
  Percent Growth: 94%
HOP-62
  GI50: 13.6 µM
  TGI: 2.81E−5
HOP-62; Log10 Concentration −4.0
  Percent Growth: −87%
HOP-62; Log10 Concentration −5.0
  Percent Growth: 71%
HOP-62; Log10 Concentration −6.0
  Percent Growth: 93%
HOP-62; Log10 Concentration −7.0
  Percent Growth: 92%
HOP-62; Log10 Concentration −8.0
  Percent Growth: 101%
BT-549
  GI50: 2.69 µM
  TGI: 8.54E−6
BT-549; Log10 Concentration −4.0
  Percent Growth: −99%
BT-549; Log10 Concentration −5.0
  Percent Growth: −7%
BT-549; Log10 Concentration −6.0
  Percent Growth: 93%
BT-549; Log10 Concentration −7.0
  Percent Growth: 98%
BT-549; Log10 Concentration −8.0
  Percent Growth: 100%
